Reference: patent US12473295B2, “Substituted straight chain spiro derivatives” (Janssen Pharmaceutica NV, priority 2019, dated 2025)
Structures can show the parent of a compound that is named as a salt.

How the values were obtained:
[1] = system: OCI-AML3 cells; experiment: Proliferation assay (spheroid growth, 8 days), OCI-AML3; assay type: cell-based, human; conditions: Homo sapiens, OCI-AML-3, […], OCI-AML3, 8 days
Method in brief: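 Cells were seeded at 200 (MOLM14, OCI-AML3) or 300 (KO-52) per well in ultra-low attachment round-bottom plates with compounds at several concentrations, 0.3% DMSO, and grown 8 days at 37° C. Spheroid confluence was imaged on day 8; IC50 came from a variable-slope fit normalized to DMSO and high-dose reference compound.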

[2] = Metabolic stability in mouse liver microsomes; assay type: in vitro ADME; conditions: mouse liver microsomes 0.5 mg/mL, 1 μM test compound, pH 7.4; read-out: Mouse LM Clint
Description: 4) Metabolic Stability in Human/Mouse Liver Microsomes
The objective of this study is to measure in vitro metabolic stability of test compound(s) in human and mouse liver microsomes and provide quantitative information on the rate of metabolic turnover (i.e. determination of the apparent intrinsic clearance of test).
Test items were prepared at a stock concentration of 10 mM in DMSO. For determination of metabolic turnover, a final working solution was prepared by adding 2 μL of 10 mM DMSO stock solution for test compound or positive control compounds to 198 μL of acetonitrile (100 μM final concentration).
Incubations were performed as follows: First, liver microsomes were thawed on ice and a master solution containing liver microsomes in 100 mM PBS (phosphate-buffered saline) at pH 7.4 is prepared. Next, the liver microsomes solution was added to the incubation plates and 10 mM NADPH (Nicotinamide-adenine dinucleotide phosphate) was added (MW: 833.4 g/mol; Roche Diagnostics GmbH, Germany. Dissolved in phosphate buffer (100 mmol/L, pH 7.4)). The mixture was mixed for 10 seconds and pre-warmed in the incubation plate at 37° C. for 10 minutes. The metabolic reaction was initiated with the addition of 5 μL of the 100 μM working solution for test compound or positive control compounds to incubation plate (final test item concentration=1 μM). The reaction final mixture should contain 1 mM NADPH, 0.5 mg/mL microsomes protein and 1 μM test compound or positive control compound in 100 mM PBS at pH 7.4. The percentage of organic solvent in incubation mixture is 1% with DMSO ≤0.02%.
The reaction was quenched by transferring 50 μL of the incubated mixture at selected time points into the quenching plate containing 200 μL of cold methanol. After sampling of all the timepoints the quenching plate was centrifuged at 4000 rpm for 40 minutes to precipitate protein. A total of 90 μL of the supernatant was transferred to an analysis plate and ultra-pure H2O water is added into each well for LC/MS/MS analysis. All incubations and analysis were performed in duplicate.
All calculations were carried out using Microsoft Excel. The slope value, k, was determined by linear regression of the natural logarithm of the remaining percentage of the parent drug vs. incubation time curve.
The in vitro half-life (in vitro tin) was determined from the slope value: in vitro t1/2=−(0.693/k)
Conversion of the in vitro tin (in min) into the in vitro intrinsic clearance (in vitro CLint, in μL/min/mg proteins) was done using the following equation: […]

IC50 [1] [nM] | microsomal CLint at 1 μM [2] [µL/min/mg] | Compound
430 | < 7.5 | CC(C)[C@@H](CCC(C)(C)N)N1CC2(CCN(c3ncnnc3Oc3ccc(F)cc3-c3cncnc3C3CC3)C2)C1 (single isomer, unassigned) [Compound 37, (*R)-5-(6-(6-(2-(4-cyclopropylpyrimidin-5-yl)-4-fluorophenoxy)-1,2,4-triazin-5-yl)-2,6-diazaspiro[3.4]octan-2-yl)-2,6-dimethylheptan-2-amine]
82 | 13 | COCCNCCC[C@H](C(C)C)N1CC2(CCN(c3ncnnc3Oc3ccc(F)cc3C(=O)N(C(C)C)C(C)C)C2)C1 (single isomer, unassigned) [Compound 99, (*R)-5-fluoro-N,N-isopropyl-2-((5-(2-(6-((2-methoxyethyl)amino)-2-methylhexan-3-yl)-2,6-diazaspiro[3.4]octan-6-yl)-1,2,4-triazin-6-yl)oxy)benzamide oxalate]
170 | 21 | CCN(C(=O)c1cc(F)ccc1Oc1nncnc1N1CCC2(C1)CN([C@H](CCCN)C(C)C)C2)C(C)C [Compound 1, (R)-2-((5-(2-(6-amino-2-methylhexan-3-yl)-2,6-diazaspiro[3.4]octan-6-yl)-1,2,4-triazin-6-yl)oxy)-N-ethyl-5-fluoro-N-isopropylbenzamide formate]
150 | < 7.5 | CCN(C(=O)c1cc(F)ccc1Oc1nncnc1N1CCC2(C1)CN([C@H](CCCNCC(OC)OC)C(C)C)C2)C(C)C.O=C(O)/C=C/C(=O)O [Compound 104, (R)-2-((5-(2-(6-((2,2-dimethoxyethyl)amino)-2-methylhexan-3-yl)-2,6-diazaspiro[3.4]octan-6-yl)-1,2,4-triazin-6-yl)oxy)-N-ethyl-5-fluoro-N-isopropylbenzamide fumarate]
81 | < 7.5 | CCN(C(=O)c1cc(F)ccc1Oc1nncnc1N1CCC2(C1)CN([C@H](CCCN[C@H](C)COC)C(C)C)C2)C(C)C.O=C(O)/C=C/C(=O)O [Compound 112, N-ethyl-5-fluoro-N-isopropyl-2-(5(2-((R)-6-(((R)-1-methoxypropan-2-yl)amino)-2-methylhexan-3-yl)-2,6-diazaspiro[3.4]octan-6-yl)-1,2,4-triazin-6-yl)oxy)benzamide fumarate]
42 | 15 | CCN(C(=O)c1cc(F)ccc1Oc1nncnc1N1CCC2(C1)CN([C@H](CCCNCCC(F)F)C(C)C)C2)C(C)C.O=C(O)/C=C/C(=O)O [Compound 114, (R)-2-(5-(2-(6-((3,3-difluoropropyl)amino)-2-methylhexan-3-yl)-2,6-diazaspiro[3.4]octan-6-yl)-1,2,4-triazin-6-yl)oxy)-N-ethyl-5-fluoro-N-isopropylbenzamide fumarate]
430 | < 7.5 | CCN(C(=O)c1cc(F)ccc1Oc1nncnc1N1CCC2(C1)CN([C@H](CCCN(C)CCNC(C)=O)C(C)C)C2)C(C)C.O=C(O)/C=C/C(=O)O [Compound 245, (R)-2-((5-(2-(6-((2-acetamidoethyl)(methyl)amino)-2-methylhexan-3-yl)-2,6-diazaspiro[3.4]octan-6-yl)-1,2,4-triazin-6-yl)oxy)-N-ethyl-5-fluoro-N-isopropylbenzamide fumarate]
380 |  | CCN(C(=O)c1cc(F)ccc1Oc1nncnc1N1CCC2(C1)CN([C@H](CCCN(C)CCC(=O)N(C)C)C(C)C)C2)C(C)C [Compound 246, (R)-2-((5-(2-(6-((3-(dimethylamino)-3-oxopropyl)(methyl)amino)-2-methylhexan-3-yl)-2,6-diazaspiro[3.4]octan-6-yl)-1,2,4-triazin-6-yl)oxy)-N-ethyl-5-fluoro-N-isopropylbenzamide formate]
